Test results: patent publication US6358885B1, “Substituted phenylheterocyclic herbicides” (Mississippi State University, priority 1992, dated 2002)

How the values were obtained:
Assay in all cases: Test B preemergence/postemergence greenhouse plant response rating 0 to 10
cotton = type: in vivo, Gossypium hirsutum; conditions: for Plant response rating, Cotton: 0 to 10 scale
How it was run: (§1)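 Postemergence treatment of plants two to eighteen cm tall ran alongside preemergence treatment of planted seed, each using compound in a non-phytotoxic solvent.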

sorghum = type: in vivo, Sorghum bicolor; conditions: for Plant response rating, Sorghum: 0 to 10 scale
How it was run: as §1

blackgrass = type: in vivo, Alopecurus myosuroides; conditions: for Plant response rating, Blackgrass: 0 to 10 scale
How it was run: as §1

chickweed = type: in vivo, Stellaria media; conditions: for Plant response rating, Chickweed: 0 to 10 scale
How it was run: as §1

soybean = type: in vivo, Glycine max; conditions: for Plant response rating, Soybean: 0 to 10 scale
How it was run: as §1

wheat = type: in vivo, Triticum aestivum; conditions: for Plant response rating, Wheat: 0 to 10 scale
How it was run: as §1

lambsquarters = type: in vivo, Chenopodium album; conditions: for Plant response rating, Lambsquarter: 0 to 10 scale
How it was run: as §1

crabgrass = type: in vivo, Digitaria spp.; conditions: for Plant response rating, Crabgrass: 0 to 10 scale
How it was run: as §1

sugar beet = type: in vivo, Beta vulgaris; conditions: for Plant response rating, Sugar beet: 0 to 10 scale
How it was run: as §1

morningglory = type: in vivo, Ipomoea hederacea; conditions: for Plant response rating, Morningglory: 0 to 10 scale
How it was run: as §1

cocklebur = type: in vivo, Xanthium pensylvanicum; conditions: for Plant response rating, Cocklebur: 0 to 10 scale
How it was run: as §1

rape = type: in vivo, Brassica napus; conditions: for Plant response rating, Rape: 0 to 10 scale
How it was run: as §1

cheatgrass = type: in vivo, Bromus secalinus; conditions: for Plant response rating, Cheatgrass: 0 to 10 scale
How it was run: as §1

wild oat = type: in vivo, Avena fatua; conditions: for Plant response rating, Wild oat: 0 to 10 scale
How it was run: as §1

bedstraw = type: in vivo, Galium aparine; conditions: for Plant response rating, Bedstraw: 0 to 10 scale
How it was run: as §1

rice = type: in vivo, Oryza sativa; conditions: for Plant response rating, Rice: 0 to 10 scale
How it was run: as §1

giant foxtail = type: in vivo, Setaria faberii; conditions: for Plant response rating, Giant foxtail: 0 to 10 scale
How it was run: as §1

velvetleaf = type: in vivo, Abutilon theophrasti; conditions: for Plant response rating, Velvetleaf: 0 to 10 scale
How it was run: as §1

wild buckwheat = type: in vivo, Polygonum convolvulus; conditions: for Plant response rating, Wild buckwheat: 0 to 10 scale
How it was run: as §1

corn = type: in vivo, Zea mays; conditions: for Plant response rating, Corn: 0 to 10 scale
How it was run: as §1

barnyardgrass = type: in vivo, Echinochloa crus-galli; conditions: for Plant response rating, Barnyardgrass: 0 to 10 scale
How it was run: as §1

barley = type: in vivo, Hordeum vulgare; conditions: for Plant response rating, Barley: 0 to 10 scale
How it was run: as §1

purple nutsedge = type: in vivo, Cyperus rotundus; conditions: for Plant response rating, Nutsedge: 0 to 10 scale
How it was run: as §1

CC(C)(C)C(=O)COc1cc(-c2nn3c(c2Cl)CCCC3)c(Cl)cc1Cl [Compound 77]
Plant response rating, Cotton (cotton; POSTEMERGENCE, Rate 50 g/ha): 10
Plant response rating, Cotton (cotton; PREEMERGENCE, Rate 50 g/ha): 0
Plant response rating (0 to 10 scale), Cotton (cotton; PREEMERGENCE, Rate 200 g/ha): 0
Plant response rating, Cotton (cotton; Rate 200 g/ha, POSTEMERGENCE): 10
Plant response rating, Sorghum (sorghum; POSTEMERGENCE, Rate 50 g/ha): 5
Plant response rating, Sorghum (sorghum; PREEMERGENCE, Rate 50 g/ha): 0
Plant response rating (0 to 10 scale), Sorghum (sorghum; PREEMERGENCE, Rate 200 g/ha): 0
Plant response rating, Sorghum (sorghum; Rate 200 g/ha, POSTEMERGENCE): 5
Plant response rating, Blackgrass (blackgrass; POSTEMERGENCE, Rate 50 g/ha): 2
Plant response rating, Blackgrass (blackgrass; PREEMERGENCE, Rate 50 g/ha): 2
Plant response rating (0 to 10 scale), Blackgrass (blackgrass; PREEMERGENCE, Rate 200 g/ha): 3
Plant response rating, Blackgrass (blackgrass; Rate 200 g/ha, POSTEMERGENCE): 3
Plant response rating, Chickweed (chickweed; POSTEMERGENCE, Rate 50 g/ha): 2
Plant response rating, Chickweed (chickweed; PREEMERGENCE, Rate 50 g/ha): 0
Plant response rating (0 to 10 scale), Chickweed (chickweed; PREEMERGENCE, Rate 200 g/ha): 1
Plant response rating, Chickweed (chickweed; Rate 200 g/ha, POSTEMERGENCE): 3
Plant response rating, Soybean (soybean; POSTEMERGENCE, Rate 50 g/ha): 5
Plant response rating, Soybean (soybean; PREEMERGENCE, Rate 50 g/ha): 0
Plant response rating (0 to 10 scale), Soybean (soybean; PREEMERGENCE, Rate 200 g/ha): 0
Plant response rating, Soybean (soybean; Rate 200 g/ha, POSTEMERGENCE): 7
Plant response rating, Wheat (wheat; POSTEMERGENCE, Rate 50 g/ha): 2
Plant response rating, Wheat (wheat; PREEMERGENCE, Rate 50 g/ha): 0
Plant response rating (0 to 10 scale), Wheat (wheat; PREEMERGENCE, Rate 200 g/ha): 0
Plant response rating, Wheat (wheat; Rate 200 g/ha, POSTEMERGENCE): 5
Plant response rating, Lambsquarter (lambsquarters; POSTEMERGENCE, Rate 50 g/ha): 10
Plant response rating, Lambsquarter (lambsquarters; PREEMERGENCE, Rate 50 g/ha): 10
Plant response rating (0 to 10 scale), Lambsquarter (lambsquarters; PREEMERGENCE, Rate 200 g/ha): 10
Plant response rating, Lambsquarter (lambsquarters; Rate 200 g/ha, POSTEMERGENCE): 10
Plant response rating, Crabgrass (crabgrass; POSTEMERGENCE, Rate 50 g/ha): 5
Plant response rating, Crabgrass (crabgrass; PREEMERGENCE, Rate 50 g/ha): 2
Plant response rating (0 to 10 scale), Crabgrass (crabgrass; PREEMERGENCE, Rate 200 g/ha): 3
Plant response rating, Crabgrass (crabgrass; Rate 200 g/ha, POSTEMERGENCE): 6
Plant response rating, Sugar beet (sugar beet; POSTEMERGENCE, Rate 50 g/ha): 10
Plant response rating, Sugar beet (sugar beet; PREEMERGENCE, Rate 50 g/ha): 3
Plant response rating (0 to 10 scale), Sugar beet (sugar beet; PREEMERGENCE, Rate 200 g/ha): 3
Plant response rating, Sugar beet (sugar beet; Rate 200 g/ha, POSTEMERGENCE): 10
Plant response rating, Morningglory (morningglory; POSTEMERGENCE, Rate 50 g/ha): 8
Plant response rating, Morningglory (morningglory; PREEMERGENCE, Rate 50 g/ha): 0
Plant response rating (0 to 10 scale), Morningglory (morningglory; PREEMERGENCE, Rate 200 g/ha): 0
Plant response rating, Morningglory (morningglory; Rate 200 g/ha, POSTEMERGENCE): 9
Plant response rating, Cocklebur (cocklebur; POSTEMERGENCE, Rate 50 g/ha): 7
Plant response rating, Cocklebur (cocklebur; PREEMERGENCE, Rate 50 g/ha): 0
Plant response rating (0 to 10 scale), Cocklebur (cocklebur; PREEMERGENCE, Rate 200 g/ha): 1
Plant response rating, Cocklebur (cocklebur; Rate 200 g/ha, POSTEMERGENCE): 9
Plant response rating, Rape (rape; POSTEMERGENCE, Rate 50 g/ha): 6
Plant response rating, Rape (rape; PREEMERGENCE, Rate 50 g/ha): 0
Plant response rating (0 to 10 scale), Rape (rape; PREEMERGENCE, Rate 200 g/ha): 6
Plant response rating, Rape (rape; Rate 200 g/ha, POSTEMERGENCE): 7
Plant response rating, Cheatgrass (cheatgrass; POSTEMERGENCE, Rate 50 g/ha): 2
Plant response rating, Cheatgrass (cheatgrass; PREEMERGENCE, Rate 50 g/ha): 3
Plant response rating (0 to 10 scale), Cheatgrass (cheatgrass; PREEMERGENCE, Rate 200 g/ha): 5
Plant response rating, Cheatgrass (cheatgrass; Rate 200 g/ha, POSTEMERGENCE): 3
Plant response rating, Wild oat (wild oat; POSTEMERGENCE, Rate 50 g/ha): 1
Plant response rating, Wild oat (wild oat; PREEMERGENCE, Rate 50 g/ha): 0
Plant response rating (0 to 10 scale), Wild oat (wild oat; PREEMERGENCE, Rate 200 g/ha): 0
Plant response rating, Wild oat (wild oat; Rate 200 g/ha, POSTEMERGENCE): 3
Plant response rating, Bedstraw (bedstraw; POSTEMERGENCE, Rate 50 g/ha): 4
Plant response rating, Bedstraw (bedstraw; PREEMERGENCE, Rate 50 g/ha): 3
Plant response rating (0 to 10 scale), Bedstraw (bedstraw; PREEMERGENCE, Rate 200 g/ha): 10
Plant response rating, Bedstraw (bedstraw; Rate 200 g/ha, POSTEMERGENCE): 5
Plant response rating, Rice (rice; POSTEMERGENCE, Rate 50 g/ha): 4
Plant response rating, Rice (rice; PREEMERGENCE, Rate 50 g/ha): 0
Plant response rating (0 to 10 scale), Rice (rice; PREEMERGENCE, Rate 200 g/ha): 0
Plant response rating, Rice (rice; Rate 200 g/ha, POSTEMERGENCE): 6
Plant response rating, Giant foxtail (giant foxtail; POSTEMERGENCE, Rate 50 g/ha): 5
Plant response rating, Giant foxtail (giant foxtail; PREEMERGENCE, Rate 50 g/ha): 2
Plant response rating (0 to 10 scale), Giant foxtail (giant foxtail; PREEMERGENCE, Rate 200 g/ha): 2
Plant response rating, Giant foxtail (giant foxtail; Rate 200 g/ha, POSTEMERGENCE): 6
Plant response rating, Velvetleaf (velvetleaf; POSTEMERGENCE, Rate 50 g/ha): 10
Plant response rating, Velvetleaf (velvetleaf; PREEMERGENCE, Rate 50 g/ha): 3
Plant response rating (0 to 10 scale), Velvetleaf (velvetleaf; PREEMERGENCE, Rate 200 g/ha): 7
Plant response rating, Velvetleaf (velvetleaf; Rate 200 g/ha, POSTEMERGENCE): 10
Plant response rating, Wild buckwheat (wild buckwheat; POSTEMERGENCE, Rate 50 g/ha): 10
Plant response rating, Wild buckwheat (wild buckwheat; PREEMERGENCE, Rate 50 g/ha): 8
Plant response rating (0 to 10 scale), Wild buckwheat (wild buckwheat; PREEMERGENCE, Rate 200 g/ha): 9
Plant response rating, Wild buckwheat (wild buckwheat; Rate 200 g/ha, POSTEMERGENCE): 10
Plant response rating, Corn (corn; POSTEMERGENCE, Rate 50 g/ha): 3
Plant response rating, Corn (corn; PREEMERGENCE, Rate 50 g/ha): 0
Plant response rating (0 to 10 scale), Corn (corn; PREEMERGENCE, Rate 200 g/ha): 0
Plant response rating, Corn (corn; Rate 200 g/ha, POSTEMERGENCE): 3
Plant response rating, Barnyardgrass (barnyardgrass; POSTEMERGENCE, Rate 50 g/ha): 4
Plant response rating, Barnyardgrass (barnyardgrass; PREEMERGENCE, Rate 50 g/ha): 0
Plant response rating (0 to 10 scale), Barnyardgrass (barnyardgrass; PREEMERGENCE, Rate 200 g/ha): 3
Plant response rating, Barnyardgrass (barnyardgrass; Rate 200 g/ha, POSTEMERGENCE): 8
Plant response rating, Barley (barley; POSTEMERGENCE, Rate 50 g/ha): 2
Plant response rating, Barley (barley; PREEMERGENCE, Rate 50 g/ha): 0
Plant response rating (0 to 10 scale), Barley (barley; PREEMERGENCE, Rate 200 g/ha): 0
Plant response rating, Barley (barley; Rate 200 g/ha, POSTEMERGENCE): 3
Plant response rating, Nutsedge (purple nutsedge; POSTEMERGENCE, Rate 50 g/ha): 2
Plant response rating, Nutsedge (purple nutsedge; PREEMERGENCE, Rate 50 g/ha): 0
Plant response rating (0 to 10 scale), Nutsedge (purple nutsedge; PREEMERGENCE, Rate 200 g/ha): 0
Plant response rating, Nutsedge (purple nutsedge; Rate 200 g/ha, POSTEMERGENCE): 2
